How the values were obtained:
[1] = tested on: Spinal cord neuron cultures; assay: Spinal cord neuron assay; type: cell-based; settings: Rattus norvegicus, 72 hours treatment, read-out: EC50 in spinal cord neuron assays
Protocol: Spinal cord neuron cultures were prepared from embryonic day 15 (E15) rat embryos (Liu et al., Screening of Immunophilin Ligands by Quantitative Analysis of Neurofilament Expression and Neurite Outgrowth in Cultured Neurons and Cells, J. Neurosci. Methods, 2007 Jul. 30; 163(2):310-20). The embryos were collected and their spinal cords were removed in ice-cold phosphate-buffered saline (PBS) without Ca^2+ and Mg^2+. Dissected pieces of spinal cord tissue were pooled together and transferred to an enzymatic dissociation media containing 20 IU/mL papain in Earle's balanced salt solution (Worthington Biochemical, Freehold, N.J.) and incubated for 30 minutes at 37° C. After enzymatic dissociation, the papain solution was aspirated and the tissue mechanically triturated with a fire-polished Pasteur pipette in complete media [Neurobasal Medium with B-27 supplement (Gibco, Grand Island, N.Y.), 100 IU/mL penicillin, 100 µg/mL streptomycin, […] aphidicolin, 0.5 mM glutamate] containing 2,000 IU/mL DNase and 10 mg/mL ovomucoid protease inhibitor. Single-cell suspensions in complete media were plated on pre-coated poly-L-ornithine/laminin 96-well plates (Becton-Dickinson, Bedford, Mass.) at a density of 1.0×10^4 cells/well. Spinal cord neurons were maintained for 24 hours then exposed to vehicle or various concentrations of compound for 72 hours.

[2] = tested on: tMCAO in rats; assay: Transient middle cerebral artery occlusion (tMCAO) model of ischemic stroke; type: in vivo, rat; settings: for reduction of infarct volume: 72 hours
Protocol: The compound of Example 2 was evaluated in two known rodent models of ischemic stroke. [Bederson J B, Pitts L H, Tsuji M, Nishimura M C, Davis R L, Bartkowski H (1986) Rat middle cerebral artery occlusion: evaluation of the model and development of a neurologic examination. Stroke 17(3): 472-476; Chen S T, Hsu C Y, Hogan E L, Maricq H Balentine J D (1986) A model of focal ischemic stroke in the rat: reproducible extensive cortical infarction. Stroke 17:738-743. DeRyck M, van Reempts J, Duytschaever H, van Deuren B, Clincke G (1992) Neocortical localization of tactile/proprioceptive limb placing reactions in the rat. Brain Res 573:44-60; Longa Z E, Weinstein P R, Carlson S, Cummins R. (1989) Reversible middle cerebral artery occlusion without craniectomy in rats. Stroke 20:294-297.]
The first model is a transient middle cerebral artery occlusion (tMCAO), in which the MCA is occluded for 90 minutes, followed by 72 hours of reperfusion. Rats were subjected to tMCAO and treated with either the compound of Example 2 (3 mg/kg, 10 mg/kg, or 30 mg/kg) via intravenous delivery [iv vehicle: 5% Tween 80, 5% PEG 400, 4% ethanol] or vehicle alone at 4, 6, 24, and 48 hours post-occlusion (4 total doses). Neurological deficits (modified Bederson scale) and weight loss were monitored at 0, 24, 48, and 72 hours post occlusion. At the end of the evaluation period, rats were euthanized and infarct volume was determined. A modified Bederson scale was used to evaluate neurological deficits following stroke. Animals were scored on a scale of 0 to 5, based on five parameters (forelimb flexion, torso twisting, resistant to lateral push, circling to contralateral side, and spontaneous circling). A score of 0 is normal whereas a score of 5 represents severe neurological deficits.

CO[C@H]1C[C@@H]2CC[C@@H](C)[C@@](O)(O2)C(=O)C(=O)N2CCCC[C@H]2C(=O)O[C@H]([C@H](C)C[C@@H]2CC[C@@H](O)[C@H](OC)C2)CC(=O)[C@H](C)/C=C(\C)[C@@H](O)[C@@H](OC)C(=O)[C@H](C)C[C@H](C)[C@@H]2CC[C@H](/C=C/1C)ON2c1ccccc1 [Example 2, 9,27-dihydroxy-3-{2-[4-hydroxy-3-methoxycyclohexyl]-1-methylethyl}-10,21-dimethoxy-6,8,12,14,20,26-hexamethyl-37-phenyl-4,9,10,12,13,14,15,16,17,18,21,22,23,24,25,26,27,32,33,34,34a-henicosahydro-3H-23,27-epoxy-18,15-(epoxyimino)pyrido[2,1-c][1,4]oxazacyclohentriacontine-1,5,11,28,29(6H,31H)-pentone]
EC50 [1]: < 1000 nM | weight loss following tMCAO ([2]; 3 mg/kg iv): significantly attenuated weight loss | neurological deficits (modified Bederson scale) following tMCAO vs vehicle ([2]; 3 mg/kg iv at 4, 6, 24 and 48 hours post-occlusion): showed trends of improving neurological deficits, but did not reach statistical significance | reduction of infarct volume ([2]; 3 mg/kg iv, did not reach statistical significance): 9% | weight loss following tMCAO ([2]; 10 mg/kg iv): significantly attenuated weight loss | neurological deficits (modified Bederson scale) following tMCAO vs vehicle ([2]; 10 mg/kg iv at 4, 6, 24 and 48 hours post-occlusion): significantly improved neurological deficits | reduction of infarct volume ([2]; 10 mg/kg iv, significant vs vehicle): 24% | weight loss following tMCAO ([2]; 30 mg/kg iv): significantly attenuated weight loss | neurological deficits (modified Bederson scale) following tMCAO vs vehicle ([2]; 30 mg/kg iv at 4, 6, 24 and 48 hours post-occlusion): significantly improved neurological deficits | reduction of infarct volume ([2]; 30 mg/kg iv, significant vs vehicle): 23% | infarct volume following tMCAO in rats (FIG. 10) ([2]; dose not stated): reduces infarct volume | neurological deficits following tMCAO in rats (FIG. 8) ([2]; dose not stated): improves neurological deficits | weight loss following tMCAO in rats (FIG. 9) ([2]; dose not stated): attenuates weight loss
